In ChEMBL document CHEMBL1148151, “Micromide and guamamide: cytotoxic alkaloids from a species of the marine cyanobacterium Symploca” (J Nat Prod, 2004) one finds IC50 data, which are given here for two compounds.

Structures are written as SMILES. pIC50: −log10 of the molar value.

In this assay the test system is KB. Briefly: Cytotoxicity against human KB cells. It is filed as functional, cell-based.

A word on the pIC50: it is −log10 of the IC50, conventionally taken in molar units. Lower therefore signals a large IC50. With `CCCCCCCCCCCC(=O)OC(C)C(OC(C)=O)C(C)C(=O)NC[C@H](O)CC(=O)OC` (some centres not stated) [GUAMAMIDE], the pIC50 was 5.92.

Consider `CCC[C@H](CC(=O)N[C@@H](Cc1ccccc1)C(=O)N(C)[C@@H](C(=O)N[C@H](C(=O)N(C)[C@H](C(=O)N(C)[C@@H](Cc1ccccc1)C(=O)N(C)Cc1nccs1)[C@@H](C)CC)C(C)C)C(C)C)OC` [MICROMIDE], for which the pIC50 is 6.59.
